One test has as its system 786-O cells. Nature of the test: Apoptosis by cleaved caspase-3 immunoblot in 786-O cells. In kind it is cell-based. To be noted: 786-O clear cell renal cell carcinoma cell line. On the procedure: (§1) Human embryonic kidney (HEK293) and 786-O cells were acquired from the American Type Culture Collection (ATCC). HEK293 cells were grown in Dulbecco's Modified Eagle Medium (DMEM, Millipore-Sigma) and 786-O cells were grown in Roswell Park Memorial Institute (RPMI-1640, Millipore-Sigma) medium supplemented with 10% fetal bovine serum (FBS, Millipore-Sigma) in a CellQ incubator (Panasonic Healthcare) at 37° C. in 5% CO2.
Cultured cells were seeded 24 h prior to treatment. Peptides were added to cells at 50% confluency at the indicated concentrations and incubated for 24 h, followed by protein extraction as described below.
(§2) Protein extraction from mammalian cells was carried out using methods previously described. See Woodford et al., Cell Reports, 14, 872-884 (2016). For immunoprecipitation, protein lysates were incubated with Hsp90 antibody for 2 h followed by incubation with protein G agarose (Qiagen) for 2 h at 4° C. Immunopellets were washed 4 times with fresh lysis buffer (20 mM Tris (pH7.4), 100 mM NaCl, 1 mM MgCl2, 0.1% NP40, protease inhibitor cocktail (Roche), and PhosSTOP (Roche)) and eluted with 5× Laemmli buffer. Precipitated proteins were separated by SDS-PAGE and transferred to nitrocellulose membranes. Co-immunoprecipitated proteins were detected by immunoblotting with the indicated antibodies, diluted in 5% non-fat dry milk reconstituted in TBST.

For another test, the target named is Aha1 (Homo sapiens, UniProt O95433). The experiment in a line: 19F NMR R2 filter binding to Aha1. The settings on record: cAbl peptides at 10 mM. The protocol: (§3) All the NMR experiments have been recorded at 298° K with a Bruker FT NMR Avance III 600-MHz spectrometer equipped with a 5-mm CryoProbe™ QCI^1H/^19F-^13C/^15N-D quadruple resonance, a shielded z-gradient coil, and the automatic sample handling system such as a SAMPLEJET™ brand sampling system with temperature control.
Aha1, sequence (O95433 whole entry, species assumed): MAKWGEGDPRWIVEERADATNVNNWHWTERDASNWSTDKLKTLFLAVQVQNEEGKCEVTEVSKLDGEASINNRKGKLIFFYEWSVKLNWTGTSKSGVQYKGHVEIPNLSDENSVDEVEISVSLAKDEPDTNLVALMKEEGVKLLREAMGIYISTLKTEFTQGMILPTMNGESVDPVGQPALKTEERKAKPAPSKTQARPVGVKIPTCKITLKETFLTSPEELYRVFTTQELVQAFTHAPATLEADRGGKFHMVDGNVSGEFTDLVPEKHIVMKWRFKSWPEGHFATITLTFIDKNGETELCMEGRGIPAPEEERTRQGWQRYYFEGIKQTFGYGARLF
^19F NMR experiments are a well-recognized approach to study the interaction between small molecules or peptides and proteins. […] This is due to the large dynamic range defined as the difference of the NMR measured response in the free and protein-bound states. ^19F R2 filter NMR experiments are among the most sensitive techniques for weak binding detection. […]
The 5 mM stock solution peptides were prepared in 100% in DMSOd6. […] 1D ^19F NMR experiments were recorded with proton decoupling with the Waltz-16 scheme during the acquisition period with an acquisition time of 0.95 s, a relaxation delay of 30 s. whereas 1D version of the NOESY (nuclear Overhauser effect spectroscopy) pulse sequence with H2O signal presaturation, a mixing time of 10 ms and a relaxation delay of 30 s was used for ^1H NMR experiments.
For the binding studies R2 filter experiments were recorded with the Carr-Purcell-Meibom-Gill scheme with a time interval of 23.5 ms between the 180° pulses with a loop of 2, an acquisition time of 0.95 s a D1 of 5 s and a number of scans of 512. […]

Another test concerns Cdk4. The experiment in a line: Immunoblot of unrelated client Cdk4 in HEK293 cells. Format: cell-based, human. To be noted: 10 μM, 36 hours, selectivity control. The protocol:
as §1
(§4) Cultured cells were seeded 24 h prior to treatment. […]
as §2

The next test concerns the target T1, Cdc37 (Homo sapiens, UniProt Q16543).
T1 sequence (Q16543 1-378): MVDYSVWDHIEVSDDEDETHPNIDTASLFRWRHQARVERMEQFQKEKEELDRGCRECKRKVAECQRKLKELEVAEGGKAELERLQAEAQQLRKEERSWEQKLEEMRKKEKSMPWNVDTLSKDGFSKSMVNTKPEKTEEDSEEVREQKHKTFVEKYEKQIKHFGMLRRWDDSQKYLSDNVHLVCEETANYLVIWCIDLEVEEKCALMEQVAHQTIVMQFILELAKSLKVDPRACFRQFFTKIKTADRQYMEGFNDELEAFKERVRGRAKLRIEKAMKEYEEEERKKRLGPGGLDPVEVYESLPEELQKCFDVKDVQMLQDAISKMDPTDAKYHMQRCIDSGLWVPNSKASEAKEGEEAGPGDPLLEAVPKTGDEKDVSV
Nature of the test: 19F NMR R2 filter binding to Cdc37. Also noted: dose or concentration left out as unconfirmed. The protocol:
as §3
(§5) ^19F NMR experiments are a well-recognized approach to study the interaction between small molecules or peptides and proteins. […] This is due to the large dynamic range defined as the difference of the NMR measured response in the free and protein-bound states. ^19F R2 filter NMR experiments are among the most sensitive techniques for weak binding detection. See Dalvit et al., Journal of American Chemical Society, 125, 7696-7703 (2003). The transverse relaxation rate R2 is a very sensitive parameter for these studies, due to the large Chemical Shift Anisotropy (CSA) of ^19F nucleus and to the large exchange contribution See Dalvit et al., Journal of American Chemical Society, 125, 7696-7703 (2003); the compounds/peptides that interact with the receptor will show a broadening and intensity reduction in their ^19F NMR signal in presence of the protein
(§6) The 5 mM stock solution peptides were prepared in 100% in DMSOd6. Solubility and purity of the peptides in PBS buffer pH 7.4, 10% D2O (for the lock signal) were checked by ^19F and ^1H NMR spectroscopy. 1D ^19F NMR experiments were recorded with proton decoupling with the Waltz-16 scheme during the acquisition period with an acquisition time of 0.95 s, a relaxation delay of 30 s. whereas 1D version of the NOESY (nuclear Overhauser effect spectroscopy) pulse sequence with H2O signal presaturation, a mixing time of 10 ms and a relaxation delay of 30 s was used for ^1H NMR experiments.
(§7) For the binding studies R2 filter experiments were recorded with the Carr-Purcell-Meibom-Gill scheme with a time interval of 23.5 ms between the 180° pulses with a loop of 2, an acquisition time of 0.95 s a D1 of 5 s and a number of scans of 512. All the ^19F chemical shifts are referenced to the CFCl3 signal in water.

The test system of another test is c-Abl-Hsp90 interaction. Nature of the test: Hsp90 immunoprecipitation, c-Abl association in HEK293 cells. The settings on record: 10 μM, 36 hours, IP of endogenous Hsp90. Format: cell-based, human. The protocol: as §1, §4, §2
Another test deals with Hsp90β-FLAG (Homo sapiens, UniProt P08238). The experiment in a line: Biotinylated peptide streptavidin pulldown of Hsp90β. In kind it is binding. To be noted: lysate of HEK293 overexpressing Hsp90β-FLAG. On the procedure:
(§8) Total cell lysates prepared as described above were incubated with the indicated amounts of biotinylated peptide at 4° C. for 1 h. Streptavidin agarose beads (ThermoScientific) were added and incubated 1 additional hour with gentle rotation. Bound Hsp90 was detected by immunoblotting as described herein.

Test [1] has as its target Human Serum Albumin (HSA) (Homo sapiens, UniProt P02768). The experiment in a line: 19F NMR control for non-specific binding to HSA. To be noted: 40 mM A01, A02 with 10 mM HSA. The protocol: as §3, §5, §6, §7
For the next test, the system named is full length human Hsp90. The experiment in a line: 19F NMR R2 filter binding to Hsp90. Also noted: 19F NMR signal change in presence of Hsp90 (binding): dose or concentration left out as unconfirmed. The protocol: as §3, §5, §6, §7
Another test addresses Hsp90α-FLAG (Homo sapiens, UniProt P07900). Nature of the test: Biotinylated peptide streptavidin pulldown of Hsp90α. Format: binding. On the procedure: as §8
Another test concerns Aha1-Hsp90 complex. Nature of the test: Hsp90 immunoprecipitation, Aha1-Hsp90 complex in HEK293 cells. Format: cell-based, human. The settings on record: 10 μM, 36 hours. On the procedure:
as §1, §4, §2

The next test relates to Akt. The experiment in a line: Immunoblot of unrelated client Akt in HEK293 cells. Format: cell-based, human. The settings on record: 10 μM, 36 hours, selectivity control. The protocol: as §1, §4, §2
The subject of a further test is c-Src. The experiment in a line: Immunoblot of unrelated client c-Src in HEK293 cells. Format: cell-based, human. To be noted: 10 μM, 36 hours, selectivity control. On the procedure:
as §1, §4, §2

The subject of the next test is c-Abl. Nature of the test: c-Abl protein level by immunoblot in treated HEK293 cells. Format: cell-based, human. The settings on record: 10 μM A01 or A02 with and without TAT, 36 hours. The protocol: as §1, §4, §2

Data on two substances can be found in patent publication US20210214734A1, “METHODS FOR SELECTIVELY INHIBITING MOLECULAR CHAPERONE CLIENTS AND COMPOSITIONS FOR USE THEREOF” (Research Foundation for the State University of New York, priority 2020, published 2021).

Where no end group is shown, it is not given here. [ ]: non-standard residue; d: D form. Phe(4-F) = N[C@@H](Cc1ccc(F)cc1)C(=O)O

Hsp90β-FLAG, sequence (P08238 whole entry): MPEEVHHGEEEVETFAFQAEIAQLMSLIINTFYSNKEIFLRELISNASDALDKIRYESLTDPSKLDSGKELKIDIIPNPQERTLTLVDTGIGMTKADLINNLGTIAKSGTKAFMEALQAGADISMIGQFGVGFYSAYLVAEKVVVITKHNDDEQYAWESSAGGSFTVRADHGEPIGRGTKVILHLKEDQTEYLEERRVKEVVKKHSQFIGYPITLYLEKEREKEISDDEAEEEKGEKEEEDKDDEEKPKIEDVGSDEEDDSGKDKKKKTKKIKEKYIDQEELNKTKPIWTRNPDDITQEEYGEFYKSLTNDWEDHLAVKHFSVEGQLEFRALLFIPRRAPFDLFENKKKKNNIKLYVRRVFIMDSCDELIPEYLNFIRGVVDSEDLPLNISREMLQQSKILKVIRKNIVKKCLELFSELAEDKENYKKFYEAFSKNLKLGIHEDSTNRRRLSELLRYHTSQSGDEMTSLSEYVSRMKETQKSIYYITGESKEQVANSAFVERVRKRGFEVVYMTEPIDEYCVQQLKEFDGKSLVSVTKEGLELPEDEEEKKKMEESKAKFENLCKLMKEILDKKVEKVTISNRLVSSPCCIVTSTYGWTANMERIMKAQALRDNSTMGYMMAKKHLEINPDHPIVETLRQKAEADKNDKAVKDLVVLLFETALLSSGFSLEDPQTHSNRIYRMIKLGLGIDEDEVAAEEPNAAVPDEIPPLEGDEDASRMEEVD

Regarding “GEMGKGGKGRVPYPGMVNREVLDQVERGF(F)RM (GEMGKGGKGRVPYPGMVNREVLDQVERG[Phe(4-F)]RM) [c-Src02, c-Src mimic peptide]”, the “apoptosis (elevation of cleaved caspase-3)” value with 786-O cells is listed as “except c-Src02, induced apoptosis”.

With “LGGGQF(F)GEVYGGVAVKTLGGGEFLDEAAVMK (LGGGQ[Phe(4-F)]GEVYGGVAVKTLGGGEFLDEAAVMK) [A01, F(F) = 4-Fluoro-L-phenylalanine]”, the “binding to Aha1 by 19F NMR” value in the test with Aha1 is on record as “but not Aha1”. Also, in the test with Cdk4, the “Cdk4 stability or activity” value was “neither the related kinase c-Src nor the client kinases Cdk4 or Akt showed a defect in stability or activity”. For the same substance, the “binding to Cdc37 by 19F NMR” value with Cdc37 is “showed the ability to bind Cdc37”. Further, in the test on c-Abl-Hsp90 interaction, the “dissociation of c-Abl from Hsp90” value is “dissociation of c-Abl from Hsp90”. Besides, in the test with Hsp90β-FLAG, the “binding to Hsp90β in pulldown” value is “binds with higher affinity to both isoforms of Hsp90”. For the same substance, the “binding interaction with HSA by 19F NMR” value in test [1] was “neither A01 nor A02 showed binding interaction with HSA”; in [1] (listed as AblO1) it was “do not interact with HSA”. The “binding to Hsp90 when A01 and A02 are mixed” value in the test on full length human Hsp90 (19F NMR, peptides mixed) is listed as “continue to bind to Hsp90 even when they are mixed”. Moreover, in the test with full length human Hsp90 (19F R2 filter, peptides tested individually, A01), the “19F NMR signal change in presence of Hsp90 (binding)” value is “decrease in the presence of Hsp90, indicating peptide-protein binding”. In addition, the Hsp90 isoform specificity entry with Hsp90α-FLAG (Hsp90α vs Hsp90β, biotinylated peptide pulldown) is listed as “neither peptide demonstrates isoform specificity”. In the test with Hsp90α-FLAG (biotinylated peptide, lysate of HEK293 overexpressing Hsp90α-FLAG), the “binding to Hsp90α in pulldown” value was “binds with higher affinity to both isoforms of Hsp90”. In addition, in the test on Aha1-Hsp90 complex, the Aha1-Hsp90 complex formation entry is given as “decreased Aha1-Hsp90 complex formation”. Besides, in the test with Akt, the “Akt stability or activity” value was “neither the related kinase c-Src nor the client kinases Cdk4 or Akt showed a defect in stability or activity”. In addition, the “c-Src stability or activity” value with c-Src is “neither the related kinase c-Src nor the client kinases Cdk4 or Akt showed a defect in stability or activity”. The c-Abl protein levels entry in the test with c-Abl is reported as “decrease of c-Abl protein levels”.
